Laboratory results from patent US6949513B2, “Polypeptides of covalently linked synthetic bioactive peptide analog(s) for treatment of cancer” (Dabur Research Foundation, priority 2001, dated 2005).
Positions of bridges follow the written chain, without caps; N, C: chain ends. Non-standard residues stand in square brackets, D forms with d. Residues, ends and D or L forms follow the SMILES beside them. Pen = CC(C)(S)[C@H](N)C(=O)O; Orn = NCCC[C@H](N)C(=O)O; Ac5c = NC1(C(=O)O)CCCC1; Aib = CC(C)(N)C(=O)O

Assays:
MCF-7 (Breast) = test: three day MTT cytotoxicity assay, MCF-7; format: cell-based, human; details: 72 hours
Protocol: (§1) SEQ ID NO: 5 and SEQ ID NO: 7 were tested for cytotoxicity against 6 human tumor cell lines. Briefly, a three day MTT cytotoxicity assay was performed, which is based on the principle of uptake of MTT (3-(4,5-dimethylthiazol-2-yl)-2,5-diphenyl tetrazolium bromide), a tetrazolium salt, by the metabolically active cells where it is metabolized by active mitochondria into a blue colored formazan product that is read spectrophoto-metrically. MTT was dissolved in phosphate buffered saline with a pH of 7.4 to obtain an MTT concentration of 5 mg/ml; the resulting mixture was filtered through a 0.22 micron filter to sterilize and remove a small amount of insoluble residue. For each type of tumor cell, 20,000 to 50,000 cells were seeded in a 96-well culture plate and incubated with the drug in a CO2 incubator for 72 hours. The final concentration range of SEQ ID NO: 5 and SEQ ID NO: 7 was 1 nM to 10 μM. The drug was added at time 0, 24 and 48 hours. Control cells not treated with the drug were similarly incubated. The assay was terminated after 72 hours by adding 100 ug (20 ul) of MTT to each well, then incubating for additional one hour, and finally adding 50 ul of 10% SDS-0.01N HCl to each well to lyse the cells and dissolve formazan. After incubating for one hour, the plate was read spectrophotometrically at 540 nm and the cytotoxicity percentage calculated. The following Tables 1 and 2 show the dose response of SEQ ID NO: 5 and SEQ ID NO: 7 respectively along with their respective ED50 values on different tumor cell lines.

[1] = system: PTC (colon) tumor xenografts; test: antitumor activity on PTC (colon) tumor xenografts grown in nude mice; format: in vivo, Balb/c athymic mice; details: 50 μg twice a day (total 100 μg), 14 days, compared to untreated mice
Protocol: PTC (colon) tumor xenografts were initiated in Balb/c athymic mice by subcutaneous inoculation of a single cell suspension of PTC cells(15×10^6 cells/[…]). When the average tumor volume reached around 2000 mm^3 the tumor-bearing mice were divided into three groups of 3 animals each. Two groups were randomly assigned for SEQ ID NO: 5 and SEQ ID NO: 7 treatment while the third group served as control. SEQ ID NO: 5 and SEQ ID NO:7 were prepared at a concentration of 250 μg/ml so as to deliver a dose of 50 μg per 200 μl. The injections were given twice a day at 12 hour intervals so as to deliver a total dose of 100 μg. The treatment was continued daily for a period of 14 days. The anti-tumor activity of SEQ ID NO: 5 and SEQ ID NO: 7 was monitored by measuring tumor volumes every fourth day and calculating volumes using the formula 0.4×W^2×L (W=smaller dia, L=larger dia,).

PTC (Colon) = test: three day MTT cytotoxicity assay, PTC; format: cell-based, human; details: 72 hours
Protocol: as §1

KB (Oral) = test: three day MTT cytotoxicity assay, KB; format: cell-based, human; details: 72 hours
Protocol: as §1

L132 (Lung) = test: three day MTT cytotoxicity assay, L132; format: cell-based, human; details: 72 hours
Protocol: as §1

MOLT-4 (Leukemia) = test: three day MTT cytotoxicity assay, MOLT-4; format: cell-based, human; details: 72 hours
Protocol: as §1

MiaPaCa.2 (Pancreas) = test: three day MTT cytotoxicity assay, MiaPaCa.2; format: cell-based, human; details: 72 hours
Protocol: as §1

trypsin = trypsin digestion of the polypeptide; format: in vitro ADME; details: trypsin 1:25 w/w, 37° C., pH 8.0-8.5
Protocol: On controlled digestion of the polypeptide peptide (SEQ ID NO:5), with enzyme trypsin, for ˜15 minutes, 3 major peaks were identifiable on analytical HPLC.
Briefly, the peptide was weighed, dissolved in NH4HCO3 buffer (pH 8.0) and mixed with freshly made enzyme trypsin (1 mg/ml in water) in a ratio of 1:25 (w/w) of enzyme: substrate, according to published protocol (Ref.: Methods in Mol. Bio., Vol. 32, Basic protein and peptide protocols, Enzymatic methods for cleaving proteins). The digestion mixture was incubated at 37° C. Aliquots were taken at different time points and analyzed on analytical HPLC (Shimadzu, Japan). The 15′ enzyme digest sample was picked up for analysis by MALDI-MS.

Structure (SMILES) | Percent cytotoxicity (MCF-7 (Breast); 1 nM) | Percent cytotoxicity (MCF-7 (Breast); 10 nM) | Percent cytotoxicity (MCF-7 (Breast); 100 nM) | Percent cytotoxicity (MCF-7 (Breast); 1 μM) | Percent cytotoxicity (MCF-7 (Breast); 10 μM) | Tumor regression [1] [%] | Percent cytotoxicity (PTC (Colon); 1 nM) | Percent cytotoxicity (PTC (Colon); 10 nM) | Percent cytotoxicity (PTC (Colon); 100 nM) | Percent cytotoxicity (PTC (Colon); 1 μM) | Percent cytotoxicity (PTC (Colon); 10 μM) | Percent cytotoxicity (KB (Oral); 1 nM) | Percent cytotoxicity (KB (Oral); 10 nM) | Percent cytotoxicity (KB (Oral); 100 nM) | Percent cytotoxicity (KB (Oral); 1 μM) | Percent cytotoxicity (KB (Oral); 10 μM) | Percent cytotoxicity (L132 (Lung); 1 nM) | Percent cytotoxicity (L132 (Lung); 10 nM) | Percent cytotoxicity (L132 (Lung); 100 nM) | Percent cytotoxicity (L132 (Lung); 1 μM) | further results
CSCC[C@H](NC(=O)[C@H](CC(C)C)NC(=O)[C@H](CCCCN)NC(=O)[C@H](CCCCN)NC(=O)C1(NC(=O)[C@H](CC(C)C)NC(=O)[C@@H](Cc2c[nH]c3ccccc23)NC(=O)[C@H](Cc2ccccc2)NC(=O)[C@@H](Cc2c[nH]c3ccccc23)NC(=O)[C@H](CCC(N)=O)NC(=O)[C@@H](Cc2ccccc2)NC(=O)[C@@H]2CCCN2C(=O)[C@H](CCCCN)NC(=O)[C@@H]2CCCN2C(=O)[C@@H](CCCNC(=N)N)NC(=O)[C@H](CCCCN)NC(=O)[C@H](CCCCN)NC(=O)[C@@H](NC(=O)[C@H]2NC(=O)C3(CCCC3)NC(=O)[C@H](CCCN)NC(=O)[C@@H](Cc3c[nH]c4ccccc34)NC(=O)[C@H](Cc3ccc(O)cc3)NC(=O)[C@@H](NC(=O)[C@H](N)Cc3ccccc3)CSSC2(C)C)[C@@H](C)O)CCCC1)C(=O)N[C@@H](Cc1ccc(O)cc1)C(=O)N1CCC[C@H]1C(=O)N[C@H](C(=O)N[C@@H](Cc1ccc(O)cc1)C(=O)N[C@@H](CC(C)C)C(=O)N[C@@H](CCCCN)C(=O)N[C@@H](CCCCN)C(=O)N[C@H](Cc1ccccc1)C(=O)N[C@@H](CCC(N)=O)C(=O)N[C@@H](Cc1c[nH]c2ccccc12)C(=O)N[C@@H](C)C(=O)N[C@H](C(=O)NC(C)(C)C(=O)N[C@@H](Cc1c[nH]cn1)C(=O)N[C@@H](CC(C)C)C(N)=O)C(C)C)[C@@H](C)O [SEQ ID NO: 5, P4-Lys-Lys-P3-Lys-Lys-P1-Lys-P2] (H-[dF]CY[dW][Orn][Ac5c][Pen]TKK[dR]PKP[dF]Q[dW]F[dW]L[Ac5c]KKLMYPTYLKK[dF]QWAV[Aib]HL-NH2; disulfide 2-7) | 29.7 ± 3.8 | 28.2 ± 4.3 | 35.3 ± 4.8 | 59.4 ± 4.8 | 85.4 ± 5.0 | 73.7 | 16.5 ± 1.6 | 14.2 ± 2.2 | 16.8 ± 1.0 | 21.7 ± 2.9 | 27.9 ± 2.8 | 10.6 ± 1.2 | 18.2 ± 1.9 | 30.7 ± 3.9 | 43.1 ± 5.3 | 98.3 ± 5.7 | 20.5 ± 3.2 | 21.5 ± 3.9 | 22.2 ± 2.8 | 28.2 ± 3.1 | Percent cytotoxicity (L132 (Lung); 10 μM): 48.8 ± 3.6; Percent cytotoxicity (MOLT-4 (Leukemia); 1 nM): 10.4 ± 0.7; Percent cytotoxicity (MOLT-4 (Leukemia); 10 nM): 18.7 ± 1.9; Percent cytotoxicity (MOLT-4 (Leukemia); 100 nM): 34.7 ± 4.7; Percent cytotoxicity (MOLT-4 (Leukemia); 1 μM): 54.3 ± 5.2; Percent cytotoxicity (MOLT-4 (Leukemia); 10 μM): 94.5 ± 6.1; Percent cytotoxicity (MiaPaCa.2 (Pancreas); 1 nM): 24.2 ± 2.7; Percent cytotoxicity (MiaPaCa.2 (Pancreas); 10 nM): 37.8 ± 4.6; Percent cytotoxicity (MiaPaCa.2 (Pancreas); 100 nM): 48.2 ± 4.8; Percent cytotoxicity (MiaPaCa.2 (Pancreas); 1 μM): 59.6 ± 4.9; Percent cytotoxicity (MiaPaCa.2 (Pancreas); 10 μM): 84.5 ± 6.3; time in which the polypeptide disappeared completely on incubation with trypsin (trypsin): ~5 h
CSCC[C@H](NC(=O)[C@H](CC(C)C)NC(=O)[C@H](CCCCN)NC(=O)[C@H](CCCCN)NC(=O)[C@H](CC(C)C)NC(=O)[C@H](Cc1c[nH]cn1)NC(=O)C(C)(C)NC(=O)[C@@H](NC(=O)[C@H](C)NC(=O)[C@H](Cc1c[nH]c2ccccc12)NC(=O)[C@H](CCC(N)=O)NC(=O)[C@@H](Cc1ccccc1)NC(=O)[C@H](CCCCN)NC(=O)[C@H](CCCCN)NC(=O)C1(NC(=O)[C@H](CC(C)C)NC(=O)[C@@H](Cc2c[nH]c3ccccc23)NC(=O)[C@H](Cc2ccccc2)NC(=O)[C@@H](Cc2c[nH]c3ccccc23)NC(=O)[C@H](CCC(N)=O)NC(=O)[C@@H](Cc2ccccc2)NC(=O)[C@@H]2CCCN2C(=O)[C@H](CCCCN)NC(=O)[C@@H]2CCCN2C(=O)[C@H](N)CCCNC(=N)N)CCCC1)C(C)C)C(=O)N[C@@H](Cc1ccc(O)cc1)C(=O)N1CCC[C@H]1C(=O)N[C@H](C(=O)N[C@@H](Cc1ccc(O)cc1)C(=O)N[C@@H](CC(C)C)C(=O)N[C@@H](CCCCN)C(=O)N[C@@H](CCCCN)C(=O)N[C@H](Cc1ccccc1)C(=O)N[C@H]1CSSC(C)(C)[C@@H](C(=O)N[C@H](C(N)=O)[C@@H](C)O)NC(=O)C2(CCCC2)NC(=O)[C@H](CCCN)NC(=O)[C@@H](Cc2c[nH]c3ccccc23)NC(=O)[C@H](Cc2ccc(O)cc2)NC1=O)[C@@H](C)O [SEQ ID NO: 7, P3-Lys-Lys-P2-Lys-Lys-P1-Lys-P4] (H-[dR]PKP[dF]Q[dW]F[dW]L[Ac5c]KK[dF]QWAV[Aib]HLKKLMYPTYLKK[dF]CY[dW][Orn][Ac5c][Pen]T-NH2; disulfide 34-39) | 18.9 ± 2.0 | 19.0 ± 0.5 | 22.9 ± 1.4 | 23.6 ± 2.9 | 31.4 ± 3.7 | 48.7 | 13.5 ± 1.8 | 18.7 ± 0.5 | 23.5 ± 3.5 | 28.5 ± 2.1 | 17.9 ± 1.9 | 13.9 ± 1.9 | 23.9 ± 1.8 | 34.8 ± 3.9 | 54.3 ± 5.8 | 82.8 ± 5.4 | 9.0 ± 0.6 | 10.4 ± 0.4 | 13.3 ± 0.1 | 14.9 ± 0.6 | Percent cytotoxicity (L132 (Lung); 10 μM): 23.1 ± 0.9; Percent cytotoxicity (MOLT-4 (Leukemia); 1 nM): 23.7 ± 1.6; Percent cytotoxicity (MOLT-4 (Leukemia); 10 nM): 34.9 ± 4.9; Percent cytotoxicity (MOLT-4 (Leukemia); 100 nM): 46.0 ± 4.9; Percent cytotoxicity (MOLT-4 (Leukemia); 1 μM): 54.3 ± 4.9; Percent cytotoxicity (MOLT-4 (Leukemia); 10 μM): 88.5 ± 6.8; Percent cytotoxicity (MiaPaCa.2 (Pancreas); 1 nM): 24.9 ± 2.8; Percent cytotoxicity (MiaPaCa.2 (Pancreas); 10 nM): 22.9 ± 1.4; Percent cytotoxicity (MiaPaCa.2 (Pancreas); 100 nM): 23.8 ± 2.9; Percent cytotoxicity (MiaPaCa.2 (Pancreas); 1 μM): 28.8 ± 1.9; Percent cytotoxicity (MiaPaCa.2 (Pancreas); 10 μM): 27.8 ± 2.8
